Test results taken from paper PMC7699247 (Antibiotics, 2020).
Where two headings read alike, the source gives them in different places.

Columns and labels:
[1] = target: T1, membrane-bound E. coli F1F0-ATPase (Escherichia coli, UniProt P0ABB4); parameters: endogenous in cells; host or cells: Escherichia coli culture; crude membrane pellet after EDTA, freeze-thaw, sonication and centrifugation; settings: literature value, ref [7]; cited from earlier work
Excerpt: Figure 2 (a) Dose-response curve representing the enzymatic activity (%) of E. coli F1F0-ATPase as a function of the log of the concentration of thymoquinone, quercetin and melittin, respectively. Error bars show the standard deviation obtained from experiments done in triplicate; (b) Comparison between the IC50 values of the reference inhibitors obtained by the developed method and from the literature. […] Good repeatabilities were obtained with relative standard deviations (RSD) below 6% and R^2 > 0.99. Likewise, melittin is found to be a strong potent inhibitor of E. coli F1F0-ATPase with its low IC50 value in the micromolar range.

[2] = target: T1, membrane-bound E. coli F1F0-ATPase; assay: biochemical; parameters: endogenous in cells; host or cells: Escherichia coli culture; crude membrane pellet after EDTA, freeze-thaw, sonication and centrifugation; species or system Escherichia coli (ATCC 25922)
Protocol: The supernatant is then removed.
Assays for each phosphate concentration were done in triplicate.
All tests were performed in triplicate.
IC50 values were determined using the PRISM® 5.04 (GraphPad software, San Diego, CA, USA) software, from a dose-response curve established by drawing the percentage of enzymatic activity (%) at different concentrations of the inhibitor expressed in terms of a log (inhibitor) (μM).
Different volumes of the stock solution of venom prepared in the buffer tris-HCl (pH = 8.5; 50 mM) are added to the reaction medium containing the transmembrane enzyme followed by ATP at 100 μM. […] The reaction is then stopped by the addition of 1% SDS (v/v). […] All assays were performed in triplicate.
Different volumes of the stock solution of phospholipase A2 are added to the reaction medium containing the isolated membrane-bound enzyme followed by ATP at 100 μM.
The effect of melittin on the membrane-bound F1F0-ATPase is studied as described in Section 4.7. Different volumes of the stock solution of melittin are added to the reaction medium containing the enzyme followed by ATP at 100 μM. […] The reaction is then stopped using a solution of 1% SDS (v/v). […] IC50 values were obtained from the dose-response curve using PRISM® 5.04 software. All assays were done in triplicate.

[3] = target: T1, membrane-bound E. coli F1F0-ATPase; assay: Combination effect of PLA2 and melittin on membrane-bound E. coli F1F0-ATPase; settings: read-out: remaining enzymatic activity, melittin alone

Compound | IC50 [1] [µM] | IC50 ([2]; read-out: IC50) [µM] | remaining activity at 9 µM [3] [%] | IC50 [2] [µM] | maximum inhibition ([2]; plateau of concentration curve, ATP 100 μM, 40 min, 37 °C, pH 8.5, triplicate)
O=c1c(O)c(-c2ccc(O)c(O)c2)oc2cc(O)cc(O)c12 [Quercetin, quercetin] | 33 | 30 ± 1.5 |  |  | 
CC1=CC(=O)C(C(C)C)=CC1=O [Thymoquinone, thymoquinone] |  | 57.5 ± 2.99 |  |  | 
CC[C@H](C)[C@H](NC(=O)CN)C(=O)NCC(=O)N[C@@H](C)C(=O)N[C@H](C(=O)N[C@@H](CC(C)C)C(=O)N[C@@H](CCCCN)C(=O)N[C@H](C(=O)N[C@@H](CC(C)C)C(=O)N[C@H](C(=O)N[C@H](C(=O)NCC(=O)N[C@@H](CC(C)C)C(=O)N1CCC[C@H]1C(=O)N[C@@H](C)C(=O)N[C@@H](CC(C)C)C(=O)N[C@H](C(=O)N[C@@H](CO)C(=O)N[C@@H](Cc1c[nH]c2ccccc12)C(=O)N[C@H](C(=O)N[C@@H](CCCCN)C(=O)N[C@@H](CCCNC(=N)N)C(=O)N[C@@H](CCCCN)C(=O)N[C@@H](CCCNC(=N)N)C(=O)N[C@@H](CCC(N)=O)C(=O)N[C@@H](CCC(N)=O)C(N)=O)[C@@H](C)CC)[C@@H](C)CC)[C@@H](C)O)[C@@H](C)O)C(C)C)C(C)C [melittin] |  |  | 51.7 | 9.03 ± 0.27 | about 80%
